Experimental data reported in patent publication US5017581A, “Pyridonecarboxylic acids and their anti-bacterial compositions” (Shionogi & Co., Ltd., priority 1988, dated 1991).
In brackets after ≈: the same amount, converted by molar mass.

Experiments:
[1] = system: Escherichia coli PC 51149 B; test: Antibacterial spectrum, MIC (method of the Japan Society of Chemotherapy), D; assay type: cell-based; details: PC51149B, 10^6 cells/ml, read-out: MIC (minimum grouth inhibitory concentration)
Description: (§1) The antibacterial activity was determined by measuring minimum grouth inhibitory concentrations (MICs) in accordance with the method as designated by the Japan Society of Chemotherapy. A, B, C, and D in the table indicate the following meanings: D: Escherichia coli PC 51149 B The test microorganisms were used at 10^6 cells/ml.

[2] = system: Staphylococcus aureus SR 14 (R); test: Antibacterial spectrum, MIC (method of the Japan Society of Chemotherapy), B; assay type: cell-based; details: 10^6 cells/ml, read-out: MIC (minimum grouth inhibitory concentration)
Description: The antibacterial activity was determined by measuring minimum grouth inhibitory concentrations (MICs) in accordance with the method as designated by the Japan Society of Chemotherapy.
A, B, C, and D in the table indicate the following meanings:
B: Staphylococcus aureus SR 14 (R)
The test microorganisms were used at 10^6 cells/ml.

Escherichia coli 7437 = test: Antibacterial spectrum, MIC (method of the Japan Society of Chemotherapy), C; assay type: cell-based; details: 10^6 cells/ml, read-out: MIC (minimum grouth inhibitory concentration)
Description: as §1, with “C:” for “D:”, “7437” for “PC 51149 B”

[3] = Convulsion and psychotropic action in mice after oral administration; assay type: in vivo; details: orally, dose of 10 mg
[4] = system: Staphylococcus aureus Smith; test: Antibacterial spectrum, MIC (method of the Japan Society of Chemotherapy), A; assay type: cell-based; details: 10^6 cells/ml, read-out: MIC (minimum grouth inhibitory concentration)
Description: as §1, with “A: Staphylococcus aureus Smith” for “D: Escherichia coli PC 51149 B”

Row | MIC [1] | MIC [2] | MIC (Escherichia coli 7437) | MIC [4] | Compound | convulsion and psychotropic action [3]
1 | < 0.003 µg/mL | 0.05 µg/mL (≈ 0.133 µM) | < 0.003 µg/mL | 0.02 µg/mL (≈ 0.0531 µM) | C=C1CN(c2c(F)c(N)c3c(=O)c(C(=O)O)cn(C4CC4)c3c2F)CC1N (stereo not drawn) [Compound I-3, 1-Cyclopropyl-5-amino-6,8-difluoro-7-(3-amino-4-methylenepyrrolydin-1-yl)-1,4-dihydro-4-oxo-3-quinolinecarboxylic acid] | 
2 | 0.006 µg/mL (≈ 0.0174 µM) | 0.1 µg/mL (≈ 0.29 µM) | < 0.003 µg/mL | 0.1 µg/mL (≈ 0.29 µM) | C=C1CN(c2nc3c(cc2F)c(=O)c(C(=O)O)cn3C2CC2)CC1N (stereo not drawn) [Compound I-4, 1-Cyclopropyl-6-fluoro-7-(3-amino-4-methylenepyrrolidin-1-yl)-1,4-dihydro-4-oxo-1,8-naphthyridine-3-carboxylic acid] | 
3 | 0.006 µg/mL (≈ 0.016 µM) | 0.05 µg/mL (≈ 0.133 µM) | < 0.003 µg/mL | 0.05 µg/mL (≈ 0.133 µM) | C=C1CN(c2c(F)cc3c(=O)c(C(=O)O)cn(C4CC4)c3c2F)CC1NC (stereo not drawn) [Compound I-5, 1-Cyclopropyl-6,8-difluoro-7-(3-methylamino-4-methylenepyrrolidin-1-yl)-1,4-dihydro-4-oxo-3-quinolinecarboxylic acid] | 

Further lines, the molecule ahead of its results:

Row | Compound | MIC [1] | MIC [2] | MIC (Escherichia coli 7437) | MIC [4] | convulsion and psychotropic action [3]
4 | C=C1CN(c2c(F)cc3c(=O)c(C(=O)O)cn(C4CC4)c3c2F)CC1N (stereo not drawn) [Compound I-1, 1-Cyclopropyl-6,8-difluoro-7-(3-amino-4-methylenepyrrolidin-1-yl)-1,4-dihydro-4-oxo-3-quinolinecarboxylic acid] | < 0.003 µg/mL | 0.05 µg/mL (≈ 0.138 µM) | < 0.003 µg/mL | 0.05 µg/mL (≈ 0.138 µM) | neither convulsion nor psychotropic action was observed
5 | C=C1CN(c2c(F)cc3c(=O)c(C(=O)O)cn(C4CC4)c3c2Cl)CC1N (stereo not drawn) [Compound I-2, 1-Cyclopropyl-8-chloro-6-fluoro-7-(3-amino-4-methylenepyrrolidin-1-yl)-1,4-dihydro-4-oxo-3-quinolinecarboxylic acid] | < 0.003 µg/mL | 0.02 µg/mL (≈ 0.0529 µM) | < 0.003 µg/mL | 0.01 µg/mL (≈ 0.0265 µM) | 
